# Assay results as given in the NIST ThermoML archive (doi:10.1016/j.tca.2005.04.019).
# Numbers after ± are expanded uncertainties.
# Columns and labels:
# [1] = DTA
# [2] = Molar enthalpy of transition or fusion; conditions: DSC
SMILES,Triple point temperature ([1]; Crystal 2) [K],Molar enthalpy of transition or fusion ([2]; Crystal 2) [kcal/mol],Triple point temperature ([1]; Crystal 3) [K],Molar enthalpy of transition or fusion ([2]; Crystal 3) [kcal/mol],Triple point temperature ([1]; Crystal 4) [K],Molar enthalpy of transition or fusion ([2]; Crystal 4) [kcal/mol]
CCCCCCCCCC[NH2+]CCCCCCCCCC.O=P([O-])(O)O [N-decyldecan-1-aminium dihydrogen phosphate],354.1 ± 3,14.6 ± 0.478,–,–,–,–
CCCCCCCCCCCCCCCCCC[NH2+]CCCCCCCCCCCCCCCCCC.O=S(=O)([O-])O [N-octadecyloctadecan-1-aminium hydrogen sulfate],355.1 ± 3,–,343.1 ± 3,26.1 ± 0.717,–,–
CCCCCCCCCCCC[NH2+]CCCCCCCCCCCC.O=S(=O)([O-])O [N-dodecyldodecan-1-aminium hydrogen sulfate],373.1 ± 3,–,347.1 ± 3,7.17 ± 0.478,–,–
CCCCCCCCCCCC[NH2+]CCCCCCCCCCCC.[Br-] [N-dodecyldodecan-1-aminium bromide],346.1 ± 3,11.7 ± 0.263,–,–,–,–
CCCCCCCCCCCC[NH2+]CCCCCCCCCCCC.[I-] [N-dodecyldodecan-1-aminium iodide],338.1 ± 3,9.2 ± 0.239,–,–,–,–
CCCCCCCC[NH2+]CCCCCCCC.[Br-] [N-octyloctan-1-aminium bromide],303.1 ± 5,5.98 ± 0.239,–,–,–,–
CCCCCCCCCCCC[NH2+]CCCCCCCCCCCC.O=P([O-])(O)O [N-dodecyldodecan-1-aminium dihydrogen phosphate],363.1 ± 3,19.8 ± 0.717,328.1 ± 3,–,–,–
CCCCCCCCCCCCCCCCCC[NH2+]CCCCCCCCCCCCCCCCCC.[Cl-] [N-octadecyloctadecan-1-aminium chloride],364.35 ± 3,23.2 ± 0.478,–,–,–,–
CCCCCCCCCCCCCCCCCC[NH2+]CCCCCCCCCCCCCCCCCC.[I-] [N-octadecyloctadecan-1-aminium iodide],366.15 ± 3,17.9 ± 0.717,–,–,–,–
CCCCCCCC[NH2+]CCCCCCCC.O=P([O-])(O)O [N-octyloctan-1-aminium dihydrogen phosphate],333.1 ± 3,–,–,–,–,–
CCCCCCCCCC[NH2+]CCCCCCCCCC.[Cl-] [didecylammonium chloride],321.1 ± 3,9.56 ± 0.239,–,–,–,–
CCCCCCCC[NH2+]CCCCCCCC.O=[N+]([O-])[O-] [N-octyloctan-1-aminium nitrate],318.1 ± 3,12.8 ± 0.239,–,–,–,–
CCCCCCCCNCCCCCCCC.Cl [N-octyl-1-octaminium hydrochloride],294.1 ± 3,8.84 ± 0.239,–,–,–,–
CCCCCCCC[NH2+]CCCCCCCC.[I-] [N-octyloctan-1-aminium iodide],271.1 ± 1,–,267.1 ± 1,5.02 ± 0.239,–,–
CCCCCCCCCCCCCCCCCC[NH2+]CCCCCCCCCCCCCCCCCC.[O-][Cl+3]([O-])([O-])[O-] [N-octadecyloctadecan-1-aminium perchlorate],361.25 ± 3,27.49 ± 0.239,–,–,–,–
CCCCCCCCCC[NH2+]CCCCCCCCCC.O=[N+]([O-])[O-] [N-decyldecan-1-aminium nitrate],333.1 ± 3,15.3 ± 0.239,–,–,–,–
CCCCCCCCCCCC[NH2+]CCCCCCCCCCCC.O=[N+]([O-])[O-] [N-dodecyldodecan-1-aminium nitrate],339.1 ± 3,18.4 ± 0.239,–,–,–,–
CCCCCCCCCCCC[NH2+]CCCCCCCCCCCC.[Cl-] [N-dodecyldodecan-1-aminium chloride],338.1 ± 3,11.5 ± 0.239,–,–,–,–
CCCCCCCCCC[NH2+]CCCCCCCCCC.[Br-] [N-decyldecan-1-aminium bromide],330.1 ± 3,9.08 ± 0.478,–,–,–,–
CCCCCCCCCCCC[NH2+]CCCCCCCCCCCC.[O-][Cl+3]([O-])([O-])[O-] [N-dodecyldodecan-1-aminium perchlorate],335.1 ± 3,17.2 ± 0.478,–,–,–,–
CCCCCCCC[NH2+]CCCCCCCC.[O-][Cl+3]([O-])([O-])[O-] [N-octyloctan-1-aminium perchlorate],296.1 ± 10,8.84 ± 0.478,–,–,–,–
CCCCCCCC[NH2+]CCCCCCCC.O=S(=O)([O-])O [dioctylammonium hydrogen sulfate],463.15 ± 3,1.15 ± 0.717,371.1 ± 3,0.335 ± 0.0717,289.1 ± 3,0.98 ± 0.0478
CCCCCCCCCCCCCCCCCC[NH2+]CCCCCCCCCCCCCCCCCC.[Br-] [N-octadecyloctadecan-1-aminium bromide],371.15 ± 3,19.4 ± 0.478,–,–,–,–
CCCCCCCCCCCCCCCCCC[NH2+]CCCCCCCCCCCCCCCCCC.O=[N+]([O-])[O-] [N-octadecyloctadecan-1-aminium nitrate],366.65 ± 3,26.1 ± 0.717,–,–,–,–
